Laboratory results published in patent publication EP3852878B1, “DICYCLANIL SALT WITH DODECYLBENZENESULFONATE AND USE OF SUCH A SALT IN COMBATING PARASITES” (ICB Pharma Spólka Jawna, priority 2018, dated 2020).

Assays:
[1] = Comparative solubility tests in water (10% aqueous dispersion mixed, filtered, dicyclanil determined in the filtrate by HPLC); assay type: physicochemical; conditions: laboratory mixer, 20 °C
Description: To document the unexpectedly low water solubility of the present salt, i.e. dicyclanil dodecylbenzenesulfonate, comparative solubility tests were carried out after 4 and 24 hours of mixing of 10% aqueous dispersion of the present salt, as well as free dicyclanil alone, in a laboratory mixer at 20 °C, after which the sample was filtered and the free/bound dicyclanil was determined in a filtrate by a HPLC method.

[2] = cited from earlier work

| Molecule | Solubility in water after 4 h of mixing [1] | Solubility in water after 24 h of mixing ([1]; 24 h) | solubility in water ([2]; at 20 °C) | solubility ([2]; in water, known dicyclanil salt) |
| --- | --- | --- | --- | --- |
| 4,6-diamino-2-cyclopropylaminopyrimidine-5-carbonitrile dodecylbenzenesulfonate | 0.0490% | 0.0495% | – | – |
| N#Cc1c(N)nc(NC2CC2)nc1N [Technical dicyclanil TC 99.0%, 4,6-diamino-2-cyolopropylaminopyrimidine-5-carbonitrile] | 0.312% | – | approximately 0.3 % by weight | – |
| CS(=O)(=O)O.N#Cc1c(N)nc(NC2CC2)nc1N [salt with methanesulfonic acid] | – | – | – | > 5% |
